This is an account of results in US9073880B2, “2-(2-phenylethenyl) 1,3-benzodiazepine derivatives useful for the treatment of cancer” (Yissum Research Development Company of the Hebrew …, priority 2010, dated 2015).

In assay [1] the test system is human prostate carcinoma PC3 cells. In words: Cell proliferation, PC3 (Example 4). It is filed as cell-based. Particulars: PC-3, PC3, prostate cancer, compound in 2-hydroxypropyl-β-cyclodextrin. On the procedure:
(§1) Human ovary cancer A2780 cells lines were seeded at a density of 5000 cells/well, human melanoma A375 cells were plated at a density of 2,500 cells/well, human colon carcinoma HCT15 cells were plated at a density of 3,000 cells/well, human prostate carcinoma PC3 cells were plated at a density of 1,500 cells/well, human breast carcinoma MCF7 cells were plated at a density of 5,000 cells/well, human breast carcinoma MDA MB 468 cells were plated at a density of 6,000 cells/well, human myeloma U266, RPMI8226 and CAG cells were plated at a density of 10,000 cells/well. All cells were plated in 96-well plates in 90 μl growth medium containing 10% FCS, 100 units/ml penicillin and 100 μg/ml streptomycin. Compound 3 was added a day later in […] of 1% DMSO in DDW to obtain final concentrations of 0, 0.1, 0.3, 1, 3, and 10 μM. The final concentration of DMSO (0.1% DMSO) was kept constant in all samples. […] The optical density values were read at 630 nm in ELISA plate reader. Non-adhered cells were exposed to WST-1 reagent for 5 hours following 72 hours treatment with the inhibitors, and optical density values were read at 630 nm in ELISA plate reader. The data was analyzed in Microsoft Excel, using the vehicle control as 100% proliferation. […]

Assay [2] deals with human colon carcinoma HCT15 cells. The assay can be described thus: Cell proliferation, HCT15 (Example 2). Type of assay: cell-based. Particulars: HCT-15, 72 hours, 0.1% DMSO, methylene blue. On the procedure:
as §1

For a further assay, the system named is human myeloma CAG cells. In words: Cell proliferation, CAG (Example 2). Type of assay: cell-based. The following applies: multiple myeloma, 72 hours, 0.1% DMSO, WST-1. On the procedure: as §1
Background: Formazan colour is commonly taken as a measure of viable cells.

Assay [3] relates to human multiple myeloma U266 cells. In words: Cell proliferation, U266 (Example 4). It is filed as cell-based. The following applies: U-266, compound in 2-hydroxypropyl-β-cyclodextrin. The method, then: as §1
A further assay concerns PKB/Akt. The assay can be described thus: IGF1-induced PKB/Akt activation in A375 cells (Example 3). It is filed as cell-based, human. Particulars: melanoma A375 cells treated 4 hr, 1 and 3 μM; FIG. 4. The method, then: Tyrosine autophosphorylation of the β-subunit of IGF-1R as well as downstream signaling induced by IGF-1R were assayed in human breast cancer MCF7 cells and in melanoma A375 cells. Cells were seeded in 6-well plates (250,000 A375 cells/well and 300,000 MCF7 cells/well) and 24 hours later medium was replaced by serum-free medium (RPMI supplemented with 100 units/ml penicillin and 100 μg/ml streptomycin). MCF7 cells were exposed for 48 hr to compound 3 at 10 μM concentration, and then stimulated for 5 minutes with 50 ng/ml IGF-1, washed twice with PBS and lysed by boiling sample buffer (10% glycerol, 50 mM Tris-HCl, pH 6.8, 3% SDS, and 5% (3-mercaptoethanol). Equal amounts of protein per lane were separated by 8% SDS-PAGE and transferred to a nitrocellulose membrane (Sartorius AG). Phosphorylated proteins were immunoblotted with anti-phosphoIGF-1R (pIGF-1R), anti-phosphotyrosine-IRS1 (pY-IRS I) and anti-phospho(T308)Akt (pPKB) antibodies. Detection was performed with horseradish peroxidase-conjugated secondary antibody using the ECL system. […]
In addition, lysates of human melanoma A375 cells were prepared from cells exposed to compound 3 at 1 and 3 μM concentrations in serum-free medium. […] In this experiment the phosphorylated form of IRS1 on Serine-636/639 and the levels of IRS2 were detected as well.

Assay [4] has as its system human melanoma A375 cells. The assay can be described thus: Cell proliferation, A375 (Example 2). The following applies: A-375, 72 hours, 0.1% DMSO, methylene blue. It is filed as cell-based. The method, then: as §1

Turning to `O=c1c(O)cc2cnc(/C=C/c3cc(O)c(O)c(Br)c3)sc-2c1O` [Compound 3], the IC50 amounted to 700 nM in assay [1]; 1000 nM in assay [2]; 1200 nM in the assay on human myeloma CAG cells; 700 nM in assay [3]; 1000 nM in assay [4]. Further, the “IGF1-induced PKB/Akt activation” value in the assay with PKB/Akt was “inhibition of IGF1-induced PKB/Akt activation”.

Usually IC50 stands for the point on the concentration scale where inhibition reaches its midpoint.
